Reference: US7199286B2, “Plant-derived novel pathogen and SAR-induction chemical induced promoters, and fragments thereof” (Syngenta Participations AG, priority 1999, dated 2007)

Tests used:
[1] = test system: NI16 promoter fragment 544 bp; test: GUS florescence assay of promoter::GUS plants after SA application, NI16 544 bp fragment; type: in vivo, Arabidopsis; conditions: 5 mM SA spray
Description: A binary promoter::reporter plasmid (pNOV2374) for Arabidopsis transformation was constructed. The regulatory/promoter sequence was fused to the GUS reporter gene (Jefferson et al. (1987) EMBO J 6: 3901-3907) by recombination using […] Technology according to the manufacturer's protocol as described in the Instruction Manual (LifeTechnologies, Rockville, Md.). The construct was then transformed into Agrobacterium tumefaciens strains by electroporation. pNOV2374 is a binary vector with a VS1 origin of replication, a copy of the Agrobacterium virg gene in the backbone, and a Basta® resistance selectable marker cassette between the left and right border sequences of the T-DNA. The Basta® selectable marker cassette comprises the Agrobacterium tumefaciens manopine synthase promoter (AtMas) (Barker et al., Plant Mol. Biol. 2, 335-350 (1983)) operably linked to the gene encoding Basta® resistance (i.e., the “BAR” gene, phosphinothricin acetyl transferase) (White et al., Nucl Acids Res 18: 1062 (1990)) and the 35S terminator. The AtMas promoter, the BAR coding sequence, and the 35S terminator are located at nt 4211 to nt 4679, nt 4680 to nt 5228, and nt 5263 to nt 5488, respectively, of pNOV2374. The vector contains […] recombination components, which were introduced into the binary vector backbone by ligating a blunt-ended cassette containing attR sites, ccdB, and a cholramphenicol resistance marker using the […] Vector Conversion System (LifeTechnologies, Rockville, Md.). The […] cassette was located between nt 126 and 1818 of pNOV2374. The promoter cassettes were inserted through an LR recombination reaction whereby the DNA sequence of pNOV2374 between nt 126 and nt 1818 were removed and replaced with the promoter of interest flanked by att sequences. […] The GIG gene (SEQ ID NO:29) contains the ST-LS1 intron from Solanum tuberosum at nt 385 to nt 576 of GUS (obtained from Dr. Stanton […], Purdue University, and described in Narasimhulu, et al. (1996) Plant Cell 8: 873-886.). […] The treatment was applied as a fine mist to the leaves. Leaf tissue was harvested from plants for the β-glucuronidase (GUS) florescence assay prior to SA application (T0) and at various time intervals after application. For quantitative analysis of promoter activity following induction treatments or in various Arabidopsis tissues and organs, GUS expression is measured florometrically. Tissue samples were harvested and ground in ice cold GUS extraction buffer (50 mM Na2HPO4 pH 7.0, 5 mM DTT, 1 mM Na2EDTA, 0.1% TritonX100, 0.1% sarcosyl). Ground samples were spun in a microfuge at 10,000 rpm for 15 minutes at 4° C. Following centrifugation, the supernatant was removed for the GUS assay and for a protein concentration determination. To measure GUS activity, the plant extract was assayed in GUS assay buffer (50 mM Na2HPO4 pH 7.0, 5 mM DTT, 1 mM Na2EDTA, 0.1% TritonX100, 0.1% sarcosyl, 1 mM 4-Methylumbelliferyl-beta-D-glucuronic acid dihydrate (MUG)), pre-warmed to 37° C. Reactions were incubated, and 100 uL aliquots were removed at 10 minute intervals over 30 minutes to stop the reaction by adding the 100 uL aliquots to tubes containing 900 uL of 2% Na2CO3. The stopped reactions were then read on a Tecan Spectroflourometer at 365 nm excitation and 455 emission wavelengths. Protein concentrations were determined using the BCA assay following the manufacturer's protocol. GUS activity is expressed as pmol MU/mg protein/min.

NI16 RNA = test: Induction of NI16 mRNA by SA and BTH spray, RNA blot hybridization; type: in vivo, Arabidopsis; conditions: WS-O plants sprayed with 5 mM SA or 300 μm BTH
Description: RNA is prepared from 4 week old Wassilewskija (WS—O) plants, that are either sprayed with water, a 5 mM solution of sodium salicylate (SA), or a 300 μm solution of benzo-(1,2,3)-thiadiazole-7-carbothioic acid S-methyl ester (BTH). […] RNA extractions and RNA blot hybridizations are performed as described previously by Ausubel et al. (1987). NI16 RNA is induced 5–10 fold within 15 minutes of SA or BTH induction and reaches a peak of approximately 50 fold induction within 2 hours of SA treatment and 25 fold induction with BTH treatment.

SMILES: O=C(O)c1ccccc1O [SA, salicylic acid]
- GUS Activity Induced by SA ([1]; 2 h): 52.2 pmol/mg protein/min
- GUS activity Fold-change relative to T0 (uninduced) ([1]; 2 h): 4.3 fold
- GUS Activity Induced by SA ([1]; 4 h): 72.5 pmol/mg protein/min
- GUS activity Fold-change relative to T0 (uninduced) ([1]; 4 h): 6.0 fold
- GUS Activity Induced by SA ([1]; 8 h): 194.9 pmol/mg protein/min
- GUS activity Fold-change relative to T0 (uninduced) ([1]; 8 h): 16.2 fold
- GUS Activity Induced by SA ([1]; 24 h): 205.4 pmol/mg protein/min
- GUS activity Fold-change relative to T0 (uninduced) ([1]; 24 h): 17.0 fold
- time NI16 transcript remains highly induced after treatment (NI16 RNA): up to 24 hours
- NI16 RNA peak induction (NI16 RNA; peak, within 2 hours of SA treatment): approximately 50 fold
